From US12588689B2, “Feed additive composition containing erythritol” (EASY BIO, INC, priority 2020, dated 2026) come the findings set out here.

This assay deals with broiler chickens (Ross 308). The assay is described as follows: Broiler chicken specification test, composition containing erythritol (noise and high temperature stress). In kind it is in vivo. The text has this:
To investigate the influence of composition containing erythritol on high temperature stress reduction in summer season, 1,280 broiler chickens (Ross 308; male and female chickens) with average weight of 44.0 g and 1 day old were divided into eight treatment groups with 10 repetitions, and then, 16 chickens were arbitrarily located in total 80 fences, thereby performing breeding tests. The mixing rates represent weight ratios, and additives by treatment group are post-formulated in a farm. The erythritol (99%) used in the formulation was purchased at Vision Pharmalab Co., Ltd., and the beta-glucan was used with Biolife (ENT Co., Ltd., 40 to 50% beta-glucan content) used in the fourth embodiment of the present invention. • Control group (CON): Formulated feed • E: Formulated feed+0.02% erythritol • B: Formulated feed+0.02% beta-glucan • L: Formulated feed+0.02% lipidol • E+B: Formulated feed+0.02% erythritol+0.02% beta-glucan • E+L: Formulated feed+0.02% erythritol+0.02% lipidol • B+L: Formulated feed+0.02% beta-glucan+0.02% lipidol • E+B+L: Formulated feed+0.02% erythritol+0.02% beta-glucan+0.02% lipidol
The feed and water were sufficiently supplied and freely fed. So as to cause stress, 80 to 100 dB noise was produced two times per a day for ten minutes, and to cause high temperature stress, Temperature-Humidity Index (THI) as shown in FIG. 4 was kept.
The weights and feed intake were measured on week 1, week 3, and week 5 to calculate weight gain per day, feed intake per day, and feed conversion ratios (FCR), and the calculated results are listed in Table 6, together with mortality rates.

Marks after values point to notes of the source that are not given here.

`OC[C@@H](O)[C@@H](O)CO` [E, erythritol]: for the setting “Step 1 (1~7 days of age)”, the Feed conversion ratio worked out at 1.36, the Feed intake is 19.4 g/day, the Mortality rate is 0.0% and the Weight gain was 14.3 g/day. The compound also showed a Weight (Step 1 (1~7 days of age), 0.02% of each additive in formulated feed) of 144.0 g. In addition, where the note is “Step 2 (8~21 days of age)”, the Feed conversion ratio is reported as 1.74^a, the Feed intake worked out at 69.3 g/day, the Mortality rate is on record as 1.3% and the Weight is on record as 705.4^e g. The Weight gain (Step 2 (8~21 days of age)) is given as 40.1^d g/day. In addition, under “Step 3 (22~35 days of age)”, the Feed conversion ratio came out at 1.88, the Feed intake is given as 236.9 g/day, the Mortality rate is reported as 3.8% and the Weight was 1592.3^e g. Besides, the Weight gain (Step 3 (22~35 days of age)) is 126.7^c g/day. Also, under “Total (1~35 days of age)”, the Feed conversion ratio is recorded as 1.79^a, the Feed intake is given as 98.6^bc g/day, the Survival rate was determined as 95.0% and the Weight gain is on record as 55.3^e g/day. The “weight gain, feed intake and feed conversion ratios compared with the control group” value (entire breeding period, result in words) is “no significant difference”.
